In patent US12642809B2, “Fucosylation and immune modulation in cancer” (H. LEE MOFFITT CANCER CENTER AND RESEARCH INSTITUTE, INC., priority 2019, dated 2026):

Experiments:
SM1 melanoma tumors = SM1 melanoma tumors in C57BL/6 mice fed control or L-fucose water; assay type: in vivo, mouse
Procedure: Tumors of SW1 or SMI melanoma cells from C3H/HeJ or C57BL/6 mice, respectively) were digested using 1× tumor digest buffer (0.5 mg/ml. Collagenase I, 0.5 mg/ml. Collagenase IV, 0.25 mg/ml. Hyalyronidase V. 0.1 mg/ml. DNAse I in HBSS (Millipore Sigma (St. Louis, MO)). Tumors were homogenized using the Miltenyi MACs dissociator. Red blood cells were lysed using ACK lysis buffer (Life Technologies, (Grand Island, NY)). Tumor homogenate cells were counted using a standard hemocytometer. (7) Flow Cytometry (a) TIL Profiling:
Single-cell suspensions from tumor and spleen tissue were stained with Live/Dead Zombie NIR (Biolegend, (San Diego, CA)) at 1:1,000 in PBS for 20 min. Cell suspensions were spun down and stained with the following antibodies: APC anti-mouse CD3 (0.5 μg/mL, BD Biosciences (San Jose, CA)), Pacific Blue anti-mouse CD4 ([…], BD Biosciences (San Jose, CA)), BV785 anti-mouse CD8 (0.5 μg/mL, BD Biosciences (San Jose, CA)), PerCP anti-mouse CD25 ([…], BD Biosciences (San Jose, CA)), FITC anti-mouse F4/80 (0.5 μg/mL, BD Biosciences (San Jose, CA)), PeCy7 anti-mouse CD11c (0.5 μg/mL, BD Biosciences (San Jose, CA)), PE anti-mouse NK1.1 (0.5 μg/mL, BD Biosciences (San Jose, CA)), PE anti-mouse DX5 (0.5 μg/mL, BD Biosciences (San Jose, CA)), PerCP-Cy5.5 anti-mouse CD11b (0.5 μg/mL, BD Biosciences (San Jose, CA)). After staining, the cells were washed and fixed (2% formaldehyde), followed by another wash and flow cytometric analysis. The compensation controls were prepared using 0.5 μg/ml. of each antibody with beads UltraComp eBeads™, (ThermoFisher Scientific (Waltham, MA)). All samples were subject to flow cytometric analysis using a LSR Flow Cytometer (BD Biosciences (San Jose, CA)). Flow cytometric data was further analyzed using FlowJo™ analysis software (BD Biosciences (San Jose, CA)). TIL profiles were determined as a measure of TIL subpopulations per gram of tumor tissues or % of total splenocytes.
FFPE mouse tumor sections were immunostained with FITC-conjugated AAL lectin (0.4 μg/mL, Vector Laboratories (Burlingame, CA)), rabbit anti-Mart-1 (0.2 μg/mL, Millipore Sigma (St. Louis, MO), and rabbit anti-S100 (0.2 μg/mL, Agilent Technologies (Santa Clara, CA)), followed by AlexaFluor 594 donkey anti-rabbit secondary antibody (0.05 μg/mL, ThermoFisher Scientific (Waltham, MA)). The slides were mounted with VECTASHIELD®+DAPI (Vector Laboratories (Burlingame, CA)). Microscopy images were acquired using a Keyence BZ-X710 microscope (Osaka, Japan), and images were measured for AAL-positive signal within MARTI-/S 100-positive regions (designated as melanoma regions of interest) using FIJI software (NIH). Statistical analysis was performed using GraphPad Prism™ (San Diego, CA).
Four-to-six-week-old female C3HeN and male C57BL6 mice were purchased from Charles Rivers Laboratories for the indicated experiments. Four-to-six-week-old male NSG mice from the Lau laboratory breeding colony were used for the indicated experiments. Mice were housed in the Comparative Medicine Facility at H. Lee Moffitt Cancer Center and Research Institute. Mouse tumor volumes were measured using length, width and depth divided by 2. Generally, 10 mice were assigned to each indicated treatment cohort, and 1×10^6 melanoma cells were subcutaneously injected into the right rear flanks of the recipient mice. At each experimental endpoint, mice were humanely euthanized using CO2 inhalation in accordance to the American Veterinary Medical Association guidelines. […] All experiments were approved by the Institutional Animal Care and Use Committee (IACUC) in accordance with the National Research Council guidelines.
SW1 or SMI mouse melanoma cells were injected into syngeneic C3H/HeN (or NSG) female or C57BI/6 male mice, respectively. […]

melanoma tumors = conditions: cited from earlier work
[1] = tested on: Leukocyte Adhesion Deficiency II; conditions: L-fuc supplementation; cited from earlier work
HLA-DRB1 = experiment: qRT-PCR and immunoblot of HLA-DRB1 in melanoma cells; assay type: cell-based, human; conditions: 250 μM, panel of melanoma cell lines
Procedure: Cells were lysed on ice in RIPA lysis buffer (25 mM Tris-HCl pH 7.6, 150 mM NaCl, 5 mM EDTA, 1% NP-40 or 1% Triton X-100, 1% sodium deoxycholate, 0.1% SDS in diH2O+protease and phosphatase inhibitors (ThermoFisher Scientific (Waltham, MA)), briefly sonicated, pelleted, and the resulting lysates were normalized by protein concentration using DC assay (BioRad Laboratories, (Hercules, CA)). The indicated samples were subjected to (12%) SDS-PAGE and immunoblot analysis using the indicated antibodies. Immunoblot imaging and analysis was performed using either an Odyssey FC scanner and ImageStudio (LiCor Biosciences, Lincoln, NE) or film.
RNA from cells subjected to the indicated treatments was extracted using Gene Elute Mammalian Total RNA Extraction System (Millipore Sigma (St. Louis, MO)). RNA was reversed transcribed to cDNA using High-Capacity cDNA Reverse Transcription Kit (ThermoFisher Scientific (Waltham, MA)). qRT-PCR analysis was performed using FastStart Universal SYBR Green Master Mix (Rox) (Roche Diagnostics, (Indianapolis, IN)) using a BioRad CFX96 Real-time system (BioRad Laboratories, (Hercules, CA)). The qRT-PCR cycles used were as follows: 95° C. for 10 min, 35 cycles of 95° C. for 15 seconds, 55° C. for 60 seconds, and 72° C. for 30 seconds. Expression of the indicated genes was normalized to histone H3A expression. […]

MDSCs = experiment: T cell proliferation in co-culture with pre-treated MDSCs; assay type: cell-based; conditions: CD3/CD28 activation, CellTrace Violet
Procedure: Shown progressive divisions of CD3/CD28-activated T cells (both CD4+ and CD8+ combined) as affected by co-culture with DMSO (control)-, FUTi (fucosyltransferase inhibitor)-, or L-fucose-pre-treated MDSCs. Undivided T cells are represented by the dark grey column. Divisions were measured by loss of CellTrace™ Violet stain. First division is represented by the light green column; second division is represented by the yellow column; and third division is represented by the navy blue column.

[2] = 100 mM L-fucose in drinking water

Q: For `C[C@H](O)[C@@H](O)[C@@H](O)[C@H](O)C=O` [L-fucose], which decreased tumor volume (SM1 melanoma tumors; [2]) is on record?
A: ~60%

Q: What about the “increase in tumor fucosylation” value (SM1 melanoma tumors; [2]) of the same molecule?
A: ~4 fold

Q: What about the “absolute counts of each TIL subpopulation” value (SM1 melanoma tumors; flow cytometry) of the same molecule?
A: significantly increased

Q: And the “increase in CD3+ T cell subpopulation” value (SM1 melanoma tumors; flow cytometry)?
A: ~15 fold

Q: What about the “increase in CD4+ and CD8+ T cells” value (SM1 melanoma tumors; flow cytometry) of the same molecule?
A: 10-100 fold

Q: What about the “increase in total TILs” value (SM1 melanoma tumors; flow cytometry) of the same molecule?
A: ~10 fold

Q: What about the splenic lymphocyte profiles (SM1 melanoma tumors; flow cytometry) of the same molecule?
A: did not significantly alter

Q: And the tumor suppression (melanoma tumors; 100 mM fucose dietary supplementation)?
A: increased tumor suppression

Q: What about the “block/reduction of tumor growth (and metastasis)” value (melanoma tumors; dietary L-fucose supplementation) of the same molecule?
A: > 50%

Q: What about the “NK cells and CD4+ T cells in tumor samples” value (melanoma tumors; fucose supplemented mice) of the same molecule?
A: elevated

Q: And the co-morbidities [1]?
A: without significant co-morbidities

Q: And the “symptoms of the disorder” value [1]?
A: can be mitigated

Q: And the “HLA-DRB1 mRNA and protein levels” value (HLA-DRB1)?
A: neither HLA-DRB1 mRNA nor protein levels were altered

Q: And the “effect of pre-treated MDSCs on T cell proliferation” value (MDSCs)?
A: do not
